Drawing on patent US11931343B2 (ARCUS BIOSCIENCES, INC., priority 2018, dated 2024), this text covers IC50 for 64 molecules.

Each structure is given as a SMILES string. pIC50: −log10 of the molar value. Where only a bound is given, the exact number is not on record here.

This assay concerns the target T1, human CD73 (Homo sapiens, UniProt P21589).
T1 sequence (P21589 27-549): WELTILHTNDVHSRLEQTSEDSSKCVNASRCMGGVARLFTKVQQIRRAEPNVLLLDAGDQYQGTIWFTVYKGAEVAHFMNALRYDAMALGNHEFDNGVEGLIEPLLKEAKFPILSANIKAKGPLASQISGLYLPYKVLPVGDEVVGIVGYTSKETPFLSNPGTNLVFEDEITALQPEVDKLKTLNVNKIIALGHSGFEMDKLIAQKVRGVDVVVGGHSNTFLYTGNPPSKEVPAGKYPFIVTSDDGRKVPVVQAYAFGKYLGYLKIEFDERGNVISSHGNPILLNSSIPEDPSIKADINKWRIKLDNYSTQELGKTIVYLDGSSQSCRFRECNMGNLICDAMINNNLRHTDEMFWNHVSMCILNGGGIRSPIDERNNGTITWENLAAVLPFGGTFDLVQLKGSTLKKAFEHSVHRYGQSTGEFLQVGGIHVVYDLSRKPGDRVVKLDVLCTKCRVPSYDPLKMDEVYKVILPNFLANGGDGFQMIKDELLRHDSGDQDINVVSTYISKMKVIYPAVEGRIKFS
As to the kind of experiment: Inhibition of Ecto-5′-nucleotidase (CD73) activity in CHO-CD73 cells, phosphate release from AMP. The class given is cell-based. The conditions noted are these: CHO-K1 cells stably transfected with human CD73; 25 μM AMP; 50 minutes, 37° C.; read-out: Potency: CD73 IC50.

For orientation: pIC50 means the IC50 on a negative log10 scale, so that one unit is a factor of ten. In the case of `Oc1cccc(-n2nnc3c(Cl)cc(-c4ccnn4Cc4ccccc4)cc32)c1` [Example 9, 3-[6-(1-Benzyl-1H-pyrazol-5-yl)-4-chloro-1H-1,2,3-benzotriazol-1-yl]phenol], the pIC50 was more than 7.00.
Then `Clc1ccc(Cn2nccc2-c2cc(Cl)c3nnn(-c4ccc5cn[nH]c5c4)c3c2)cc1` [Example 44], with more than 7.00; and `Clc1cc(-c2ccnn2Cc2ccccn2)cc2c1nnn2-c1ccc2cn[nH]c2c1` [Example 45], with 6.00 to 7.00.
Then `FC(F)(F)Oc1ccc(Cn2nccc2-c2cc(Cl)c3nnn(-c4ccc5cn[nH]c5c4)c3c2)cc1` [Example 46], with more than 7.00.
With `c1cc(-c2ccc3nnn(-c4ccc5cn[nH]c5c4)c3c2)n(CC2CC2)n1` [Example 47], the pIC50 was less than 6.00.
The result for `N#Cc1cccc(Cn2nccc2-c2ccc3nnn(-c4ccc5cn[nH]c5c4)c3c2)c1` [Example 48] reads less than 6.00; that for `CC(C)c1ccc(Cn2nccc2-c2cc(Cl)c3nnn(-c4ccc5cn[nH]c5c4)c3c2)cc1` [Example 51], 6.00 to 7.00.
Then `Clc1ccccc1Cn1nccc1-c1cc(Cl)c2nnn(-c3ccc4cn[nH]c4c3)c2c1` [Example 52], with more than 7.00.
Then `FC(F)(F)Oc1ccccc1Cn1nccc1-c1cc(Cl)c2nnn(-c3ccc4cn[nH]c4c3)c2c1` [Example 53], with 6.00 to 7.00.
As to `Cc1ccc(Cn2nccc2-c2cc(Cl)c3nnn(-c4ccc5cn[nH]c5c4)c3c2)cc1` [Example 54], the pIC50 was more than 7.00.
The result for `COc1ccc(Cn2nccc2-c2ccc3nnn(-c4ccc5cn[nH]c5c4)c3c2)cc1` [Example 55] reads 6.00 to 7.00; that for `Cc1cnn(Cc2ccc(Cl)cc2)c1-c1cc(Cl)c2nnn(-c3ccc4cn[nH]c4c3)c2c1` [Example 56], 6.00 to 7.00.
The result for `Fc1cc(Cn2nccc2-c2ccc3nnn(-c4ccc5cn[nH]c5c4)c3c2)ccc1Cl` [Example 58] reads more than 7.00; that for `Clc1ccc(Cn2nccc2-c2cc(Cl)c3nnn(-c4ccc5cn[nH]c5c4)c3c2)c(Cl)c1` [Example 59], more than 7.00; that for `Clc1cccnc1Cn1nccc1-c1cc(Cl)c2nnn(-c3ccc4cn[nH]c4c3)c2c1` [Example 61], less than 6.00.
The result for `FC(F)c1ccc(Cn2nccc2-c2cc(Cl)c3nnn(-c4ccc5cn[nH]c5c4)c3c2)cc1` [Example 63] reads more than 7.00.
Take `Fc1cc(-c2ccnn2Cc2ccc(Cl)cc2)cc2c1nnn2-c1ccc2cn[nH]c2c1` [Example 64]: the pIC50 was more than 7.00.
The result for `Fc1cc(-c2ccnn2Cc2ccccc2Cl)cc2c1nnn2-c1ccc2cn[nH]c2c1` [Example 65] reads 6.00 to 7.00.
The result for `CCc1ccc(Cn2nccc2-c2cc(Cl)c3nnn(-c4ccc5cn[nH]c5c4)c3c2)cc1` [Example 68] reads more than 7.00; that for `FC(F)(F)c1ccc(Cn2nccc2-c2cc(Cl)c3nnn(-c4ccc5cn[nH]c5c4)c3c2)cc1` [Example 69], 6.00 to 7.00; that for `CC(c1ccccc1)n1nccc1-c1cc(Cl)c2nnn(-c3ccc4cn[nH]c4c3)c2c1` (stereo not shown) [Example 70], 6.00 to 7.00.
Then `CC(c1ccccc1)n1nccc1-c1cc(F)c2nnn(-c3ccc4cn[nH]c4c3)c2c1` (stereo not shown) [Example 71], with less than 6.00.
For `CC(c1ccccc1)n1nccc1-c1ccc2nnn(-c3ccc4cn[nH]c4c3)c2c1` (stereo not shown) [Example 72], the pIC50 was less than 6.00.
Turning to `Fc1ccc(Cn2nccc2-c2cc(Cl)c3nnn(-c4ccc5cn[nH]c5c4)c3c2)nc1` [Example 73], the pIC50 was more than 7.00.
The result for `Cc1cnc(Cn2nccc2-c2cc(Cl)c3nnn(-c4ccc5cn[nH]c5c4)c3c2)c(F)c1` [Example 74] reads 6.00 to 7.00.
The result for `Fc1cc(-c2ccnn2Cc2ccc(Cl)cc2Cl)cc2c1nnn2-c1ccc2cn[nH]c2c1` [Example 75] reads more than 7.00.
The result for `Fc1cc(Cl)ccc1Cn1nccc1-c1cc(F)c2nnn(-c3ccc4cn[nH]c4c3)c2c1` [Example 76] reads more than 7.00; that for `Clc1cnc(Cn2nccc2-c2ccc3nnn(-c4ccc5cn[nH]c5c4)c3c2)c(Cl)c1` [Example 79], 6.00 to 7.00.
As for `Clc1cnc(Cn2nccc2-c2cc(Cl)c3nnn(-c4ccc5cn[nH]c5c4)c3c2)c(Cl)c1` [Example 80], the pIC50 is 6.00 to 7.00.
The result for `Fc1cnc(Cn2nccc2-c2cc(Cl)c3nnn(-c4ccc5cn[nH]c5c4)c3c2)c(Cl)c1` [Example 81] reads 6.00 to 7.00.
Then `Fc1cc(Cn2nccc2-c2cc(Cl)c3nnn(-c4ccc5cn[nH]c5c4)c3c2)ccc1Cl` [Example 82], with more than 7.00; and `Fc1cc(Cl)ccc1Cn1nccc1-c1cc(Cl)c2nnn(-c3ccc4cn[nH]c4c3)c2c1` [Example 83], with more than 7.00.
Turning to `Cc1ccc(Cn2nccc2-c2cc(Cl)c3nnn(-c4ccc5cn[nH]c5c4)c3c2)nc1` [Example 84], the pIC50 is 6.00 to 7.00.
Take `Fc1cc(-c2ccnn2Cc2ccccn2)cc2c1nnn2-c1ccc2cn[nH]c2c1` [Example 85]: the pIC50 is 6.00 to 7.00.
The result for `Cc1ccc(Cn2nccc2-c2cc(F)c3nnn(-c4ccc5cn[nH]c5c4)c3c2)nc1` [Example 86] reads 6.00 to 7.00; that for `Cc1cnc(Cn2nccc2-c2cc(F)c3nnn(-c4ccc5cn[nH]c5c4)c3c2)c(F)c1` [Example 87], less than 6.00; that for `Cc1cc(F)cnc1Cn1nccc1-c1cc(F)c2nnn(-c3ccc4cn[nH]c4c3)c2c1` [Example 88], less than 6.00.
The result for `Cc1ccc(Cn2nccc2-c2cc(Cl)c3nnn(-c4ccc5cn[nH]c5c4)c3c2)c(Cl)c1` [Example 89] reads more than 7.00; that for `Brc1ccc(Cn2nccc2-c2ccc3nnn(-c4ccc5cn[nH]c5c4)c3c2)cc1` [Example 90], 6.00 to 7.00; that for `Fc1cc(-c2ccnn2Cc2ccc(C(F)F)cc2)cc2c1nnn2-c1ccc2cn[nH]c2c1` [Example 91], 6.00 to 7.00.
The result for `CC(c1ccc(Br)cn1)n1nccc1-c1ccc2nnn(-c3ccc4cn[nH]c4c3)c2c1` (stereo not shown) [Example 92] reads 6.00 to 7.00; that for `c1cc(-c2ccc3nnn(-c4ccc5cn[nH]c5c4)c3c2)n(CC2CCCCO2)n1` (stereo not shown) [Example 93], less than 6.00.
Regarding `Clc1cc(-c2ccnn2CC2CCCCO2)cc2c1nnn2-c1ccc2cn[nH]c2c1` (stereo not shown) [Example 94], the pIC50 is 6.00 to 7.00.
The result for `Cc1cc(Cl)ccc1Cn1nccc1-c1cc(F)c2nnn(-c3ccc4cn[nH]c4c3)c2c1` [Example 95] reads more than 7.00; that for `Cc1cc(Cl)ccc1Cn1nccc1-c1cc(Cl)c2nnn(-c3ccc4cn[nH]c4c3)c2c1` [Example 96], more than 7.00; that for `Cc1ccc(Cn2nccc2-c2cc(F)c3nnn(-c4ccc5cn[nH]c5c4)c3c2)c(Cl)c1` [Example 97], more than 7.00.
Turning to `Fc1cccnc1Cn1nccc1-c1ccc2nnn(-c3ccc4cn[nH]c4c3)c2c1` [Example 98], the pIC50 was less than 6.00.
As to `CC(c1ccccn1)n1nccc1-c1cc(Cl)c2nnn(-c3ccc4cn[nH]c4c3)c2c1` (stereo not shown) [Example 99], the pIC50 is less than 6.00.
Then `Cc1ccc(Cn2nccc2-c2cc(F)c3nnn(-c4ccc5cn[nH]c5c4)c3c2)cc1` [Example 100], with 6.00 to 7.00.
Regarding `Fc1cc(-c2ccnn2Cc2ccc(Cl)cn2)cc2c1nnn2-c1ccc2cn[nH]c2c1` [Example 101], the pIC50 is more than 7.00.
Then `FC(F)(F)c1ccccc1Cn1nccc1-c1cc(Cl)c2nnn(-c3ccc4cn[nH]c4c3)c2c1` [Example 102], with 6.00 to 7.00; and `Fc1cc(-c2ccnn2Cc2ccccc2C(F)(F)F)cc2c1nnn2-c1ccc2cn[nH]c2c1` [Example 103], with 6.00 to 7.00.
Then `Fc1cc(Cl)cnc1Cn1nccc1-c1cc(Cl)c2nnn(-c3ccc4cn[nH]c4c3)c2c1` [Example 104], with 6.00 to 7.00.
The result for `N#Cc1ccc(Cn2nccc2-c2cc(Cl)c3nnn(-c4ccc5cn[nH]c5c4)c3c2)nc1` [Example 106] reads 6.00 to 7.00.
Turning to `N#Cc1ccc(Cn2nccc2-c2cc(F)c3nnn(-c4ccc5cn[nH]c5c4)c3c2)nc1` [Example 107], the pIC50 is 6.00 to 7.00.
Then `FC(F)(F)c1ccc(Cn2nccc2-c2cc(Cl)c3nnn(-c4ccc5cn[nH]c5c4)c3c2)nc1` [Example 108], with 6.00 to 7.00; and `Clc1ccc(Cn2nccc2-c2cc(Cl)c3nnn(-c4ccc5cn[nH]c5c4)c3c2)c(Br)c1` [Example 109], with 6.00 to 7.00.
The result for `FC(F)(F)c1ccc(Cn2nccc2-c2cc(Cl)c3nnn(-c4ccc5cn[nH]c5c4)c3c2)c(Cl)c1` [Example 110] reads 6.00 to 7.00; that for `N#Cc1ccc(Cn2nccc2-c2cc(Cl)c3nnn(-c4ccc5cn[nH]c5c4)c3c2)c(F)c1` [Example 112], more than 7.00; that for `N#Cc1ccc(Cn2nccc2-c2cc(C#N)c3nnn(-c4ccc5cn[nH]c5c4)c3c2)cc1` [Example 114], 6.00 to 7.00.
`CC(c1ccc(C#N)cc1)n1nccc1-c1ccc2nnn(-c3ccc4cn[nH]c4c3)c2c1` (stereo not shown) [Example 115]: the negative logarithm of the IC50 (pIC50) is 6.00 to 7.00.
The result for `CC(c1ccc(C#N)cc1)n1nccc1-c1cc(F)c2nnn(-c3ccc4cn[nH]c4c3)c2c1` (stereo not shown) [Example 116] reads 6.00 to 7.00; that for `CC(c1ccc(C#N)cc1)n1nccc1-c1cc(Cl)c2nnn(-c3ccc4cn[nH]c4c3)c2c1` (stereo not shown) [Example 117], 6.00 to 7.00.
Then `CC(c1ccc(C(N)=O)cc1)n1nccc1-c1ccc2nnn(-c3ccc4cn[nH]c4c3)c2c1` (stereo not shown) [Example 118], with less than 6.00.
